Values of other authors in patent US20220310211A1, “NON-TRANSITORY COMPUTER-READABLE STORAGE MEDIUM, INFORMATION PROCESSING APPARATUS, AND INFORMATION PROCESSING METHOD” (FUJITSU LIMITED, priority 2021, published 2022).

Conditions: PubChem AID 1006; binary Active/Inactive

Cc1cccc(Cc2cnc(O[Si](C)(C)C)[nH]2)c1C [CID603597]
biological activity: Active
